Here are results for eleven compounds from ChEMBL document CHEMBL4373736, “Synthesis and biological evaluation of panaxatriol derivatives against myocardial ischemia/reperfusion injury in the rat” (Eur J Med Chem, 2020).

Data set [1] deals with Cardiac muscle cell. The experiment in a line: Cytoprotective activity against OGD/reperfusion induced injury in Sprague-Dawley rat cardiomyocytes assessed as effect on cell viability at 10 uM pretreated for 24 hrs followed by OGD for 2 hrs and subsequent reperfusion for 24 hrs (reference value: 43.9 to 45.4 +/- 1.1 %). Type of data set: functional.
Data set [2] deals with Cardiac muscle cell. Briefly: Cytoprotective activity against OGD/reperfusion induced injury in Sprague-Dawley rat cardiomyocytes assessed as effect on cell viability at 0.1 uM pretreated for 24 hrs followed by OGD for 2 hrs and subsequent reperfusion for 24 hrs (reference value: 43.9 to 45.4 +/- 1.1 %). It counts as functional.
Data set [3] relates to Cardiac muscle cell. Briefly: Cytotoxicity against Sprague-Dawley rat cardiomyocytes assessed as inhibition of cell growth at 10 uM treated for 50 hrs by MTT assay. It counts as cell-based. Background: Tetrazolium assays rely on reduction of a dye to a coloured formazan, in cell work by metabolically active cells.
For data set [4], the system named is Cardiac muscle cell. Briefly: Cytoprotective activity against OGD/reperfusion induced injury in Sprague-Dawley rat cardiomyocytes assessed as effect on cell viability at 1 uM pretreated for 24 hrs followed by OGD for 2 hrs and subsequent reperfusion for 24 hrs (reference value: 43.9 to 45.4 +/- 1.1 %). It counts as functional.

On to `CC1(C)CCC[C@](C)([C@H]2CC[C@]3(C)[C@@H]2[C@H](O)C[C@@H]2[C@@]4(C)Cc5sc(Nc6ccccc6)nc5C(C)(C)[C@@H]4C(=O)C[C@]23C)O1`, for which the Activity is recorded as 63% in the data set on Cardiac muscle cell [1], 49.7% in the data set with Cardiac muscle cell [2], “Non-Toxic” with Cardiac muscle cell [3] and 56% in the data set on Cardiac muscle cell [4].

As for `CC1(C)CCC[C@](C)([C@H]2CC[C@]3(C)[C@@H]2[C@H](O)C[C@@H]2[C@@]4(C)Cc5cnn(-c6ccccc6)c5C(C)(C)[C@@H]4[C@H](O)C[C@]23C)O1`, the Activity in the data set with Cardiac muscle cell [1] is on record as 62.5%; in the data set with Cardiac muscle cell [2], 50.8%; in the data set on Cardiac muscle cell [3], “Non-Toxic”; with Cardiac muscle cell [4], 57.3%.

`COc1ccc(-c2nc3c(s2)C[C@]2(C)[C@H]4C[C@@H](O)[C@@H]5[C@@H]([C@@]6(C)CCCC(C)(C)O6)CC[C@@]5(C)[C@]4(C)CC(=O)[C@H]2C3(C)C)cc1`: the Activity in the data set with Cardiac muscle cell [1] is reported as 78.5%; in the data set with Cardiac muscle cell [2], 64.9%; in the data set with Cardiac muscle cell [3], “Non-Toxic”; in the data set with Cardiac muscle cell [4] it was 71.3%.

`CC(=O)Nc1nc2c(s1)C[C@]1(C)[C@H]3C[C@@H](O)[C@@H]4[C@@H]([C@@]5(C)CCCC(C)(C)O5)CC[C@@]4(C)[C@]3(C)CC(=O)[C@H]1C2(C)C`: the Activity in the data set on Cardiac muscle cell [1] is recorded as 61.2%; in the data set on Cardiac muscle cell [2], 48.6%; with Cardiac muscle cell [3], “Non-Toxic”; in the data set on Cardiac muscle cell [4], 53.6%.

With `Cc1ccc2[nH]c3c(c2c1)C[C@]1(C)[C@H]2C[C@@H](O)[C@@H]4[C@@H]([C@@]5(C)CCCC(C)(C)O5)CC[C@@]4(C)[C@]2(C)CC(=O)[C@H]1C3(C)C`, the Activity in the data set on Cardiac muscle cell [1] is reported as 73.8%; in the data set with Cardiac muscle cell [2], 58.9%; in the data set on Cardiac muscle cell [3], “Non-Toxic”; with Cardiac muscle cell [4], 66.4%.

On to `CC1(C)CCC[C@](C)([C@H]2CC[C@]3(C)[C@@H]2[C@H](O)C[C@@H]2[C@@]4(C)Cc5c(CO)noc5C(C)(C)[C@@H]4[C@H](O)C[C@]23C)O1`, for which the Activity was 66.8% in the data set with Cardiac muscle cell [1], 55.1% in the data set on Cardiac muscle cell [2], “Non-Toxic” with Cardiac muscle cell [3] and 60.9% in the data set on Cardiac muscle cell [4].

With `CC1(C)CCC[C@](C)([C@H]2CC[C@]3(C)[C@@H]2[C@H](O)C[C@@H]2[C@@]4(C)Cc5sc(-c6ccccc6)nc5C(C)(C)[C@@H]4C(=O)C[C@]23C)O1`, the Activity in the data set on Cardiac muscle cell [1] is reported as 75.3%; with Cardiac muscle cell [2] it was 59.1%; in the data set on Cardiac muscle cell [3], “Non-Toxic”; with Cardiac muscle cell [4] it was 68%.

Turning to `CC1(C)CCC[C@](C)([C@H]2CC[C@]3(C)[C@@H]2[C@H](O)C[C@@H]2[C@@]4(C)Cc5sc(NC(=N)N)nc5C(C)(C)[C@@H]4C(=O)C[C@]23C)O1`, the Activity is 57.2% in the data set on Cardiac muscle cell [1], 48.9% with Cardiac muscle cell [2], “Non-Toxic” in the data set with Cardiac muscle cell [3] and 52.5% in the data set on Cardiac muscle cell [4].

Regarding `CC1(C)CCC[C@](C)([C@H]2CC[C@]3(C)[C@@H]2[C@H](O)C[C@@H]2[C@@]4(C)Cc5c([nH]c6c(F)cccc56)C(C)(C)[C@@H]4C(=O)C[C@]23C)O1`, the Activity in the data set on Cardiac muscle cell [1] is 62.6%; in the data set with Cardiac muscle cell [2], 53.5%; with Cardiac muscle cell [3], “Non-Toxic”; with Cardiac muscle cell [4], 58%.

Regarding `CC1(C)CCC[C@](C)([C@H]2CC[C@]3(C)[C@@H]2[C@H](O)C[C@@H]2[C@@]4(C)Cc5cnoc5C(C)(C)[C@@H]4[C@H](O)C[C@]23C)O1`, the Activity in the data set with Cardiac muscle cell [1] is given as 76.9%; with Cardiac muscle cell [2], 60.6%; in the data set on Cardiac muscle cell [3], “Non-Toxic”; with Cardiac muscle cell [4], 67.2%.

Turning to `CC1(C)CCC[C@](C)([C@H]2CC[C@]3(C)[C@@H]2[C@H](O)C[C@@H]2[C@@]4(C)Cc5sc(-c6ccc(C(F)(F)F)cc6)nc5C(C)(C)[C@@H]4C(=O)C[C@]23C)O1`, the Activity is 62.9% with Cardiac muscle cell [1], 51.6% in the data set on Cardiac muscle cell [2], “Non-Toxic” in the data set on Cardiac muscle cell [3] and 57.9% in the data set on Cardiac muscle cell [4].
